# Laboratory results from patent publication US20240285621A1, “PYRAZOLYL-PYRIMIDINE DERIVATIVES AS KINASE INHIBITORS” (NERVIANO MEDICAL SCIENCES S.R.L., priority 2020, published 2024).
# Structures can show the parent of a compound that is named as a salt.
# Columns and labels:
# SYK [1] = biological target: T1, SYK (Homo sapiens, UniProt P43405); experiment: Biochemical kinase inhibition assay on SYK, KinaseGlo assay format; settings: read-out: IC50 (μM) Kglo
# T1 construct: Recombinant proteins SYK FL was produced at NMS via baculo virus infection in insect cells; His; GST; made in house; host or cells: insect cells (baculovirus)
# SYK [2] = biological target: T1, SYK; experiment: Biochemical kinase inhibition assay on SYK, ADPGlo assay format; settings: Table A, pre-activated SYK 0.6 nM, ATP 60 μM, BioDBn*327 125 μM, 60 minutes at room temperature
# [3] = Table A, KinaseGlo format, pre-activated SYK 2.5 nM, ATP 2.5 μM, substrate BioDBn*327 125 uM, 60 minutes at rt
# [4] = Table B, reference compounds of WO2012/139930, KinaseGlo format on Syk
SMILES,IC50 (SYK [1]; [3]) [µM],IC50 (SYK [2]) [µM],IC50 (SYK [1]; [4]) [µM]
"COc1cc(F)cc(Nc2nccc(-c3cc(C(=O)N[C@@H](C)CN4CCC4)n(C)n3)n2)c1 [Example 48, N-[(2S)-1-(azetidin-1-yl)propan-2-yl]-3-{2-[(3-fluoro-5-methoxyphenyl)amino]pyrimidin-4-yl}-1-methyl-1H-pyrazole-5-carboxamide]",0.006,0.023,–
"COc1cc(F)cc(Nc2nccc(-c3cc(C(=O)N[C@@H](C)CN(C)C)n(C)n3)n2)c1 [Example 65, N-[(2S)-1-(dimethylamino)propan-2-yl]-3-{2-[(3-fluoro-5-methoxyphenyl)amino]pyrimidin-4-yl}-1-methyl-1H-pyrazole-5-carboxamide]",0.009,0.038,–
"COc1cc(Nc2nccc(-c3cc(C(=O)N[C@@H](C)CN(C)C)n(C)n3)n2)cc(OC)c1 [Example 67, 3-{2-[(3,5-dimethoxyphenyl)amino]pyrimidin-4-yl}-N-[(2S)-1-(dimethylamino)propan-2-yl]-1-methyl-1H-pyrazole-5-carboxamide]",< 0.004,0.014,–
"COc1cc(Nc2nccc(-c3cc(C(=O)N[C@@H](C)CN4CCCC4)n(C)n3)n2)cc(OC)c1 [Example 69, 3-{2-[(3,5-dimethoxyphenyl)amino]pyrimidin-4-yl}-1-methyl-N-[(2S)-1-(pyrrolidin-1-yl)propan-2-yl]-1H-pyrazole-5-carboxamide]",0.008,0.01,–
"Cc1cc(C)cc(Nc2nccc(-c3cc(C(=O)N4CC[C@H](N(C)C)C4)n(C)n3)n2)c1 [Example 86, [(3S)-3-(dimethylamino)pyrrolidin-1-yl](3-{2-[(3,5-dimethylphenyl)amino]pyrimidin-4-yl}-1-methyl-1H-pyrazol-5-yl)methanone]",0.471,–,–
"Cc1cc(C)cc(Nc2nccc(-c3cc(C(=O)N4CCC(N)C4)n(C)n3)n2)c1 (centres unmarked) [Example 88, (3-aminopyrrolidin-1-yl)(3-{2-[(3,5-dimethylphenyl)amino]pyrimidin-4-yl}-1-methyl-1H-pyrazol-5-yl)methanone]",0.051,–,–
"Cc1cc(C)cc(Nc2nccc(-c3cc(C(=O)N4CCC[C@H]4CO)n(C)n3)n2)c1 [Example 89, (3-{2-[(3,5-dimethylphenyl)amino]pyrimidin-4-yl}-1-methyl-1H-pyrazol-5-yl)[(2S)-2-(hydroxymethyl)pyrrolidin-1-yl]methanone]",0.219,–,–
"Cc1cc(C)cc(Nc2nccc(-c3cc(C(=O)N4CC[C@H](O)C4)n(C)n3)n2)c1 [Example 90, (3-{2-[(3,5-dimethylphenyl)amino]pyrimidin-4-yl}-1-methyl-1H-pyrazol-5-yl)[(3S)-3-hydroxypyrrolidin-1-yl]methanone]",0.156,–,–
"Cc1cc(C)cc(Nc2nccc(-c3cc(C(=O)N[C@@H]4CCCC[C@@H]4O)n(C)n3)n2)c1 [Example 91, 3-{2-[(3,5-dimethylphenyl)amino]pyrimidin-4-yl}-N-[(1R,2S)-2-hydroxycyclohexyl]-1-methyl-1H-pyrazole-5-carboxamide]",0.035,–,–
"Cc1c(C)n(C)c2ccc(Nc3nccc(-c4cc(C(=O)N[C@@H](C)CO)n(C)n4)n3)cc12 [Example 93, N-[(2S)-1-hydroxypropan-2-yl]-1-methyl-3-{2-[(1,2,3-trimethyl-1H-indol-5-yl)amino]pyrimidin-4-yl}-1H-pyrazole-5-carboxamide]",0.137,–,–
"Cc1cc(C)cc(Nc2nccc(-c3cc(C(=O)N4C[C@H]5C[C@H]4CN5)n(C)n3)n2)c1 [Example 96, (1S,4R)-2,5-diazabicyclo[2.2.1]hept-2-yl(3-{2-[(3,5-dimethylphenyl)amino]pyrimidin-4-yl}-1-methyl-1H-pyrazol-5-yl)methanone hydrochloride]",0.07,–,–
"Cn1nc(-c2ccnc(Nc3cc(Cl)cc(Cl)c3)n2)cc1C(=O)N[C@H]1CCCC[C@H]1N [Example 99, N-[(1S,2R)-2-aminocyclohexyl]-3-{2-[(3,5-dichlorophenyl)amino]pyrimidin-4-yl}-1-methyl-1H-pyrazole-5-carboxamide hydrochloride]",0.011,–,–
"COc1cc(Nc2nccc(-c3cc(C(=O)N[C@H]4CCCC[C@H]4N)n(C)n3)n2)cc(OC)c1 [Example 100, N-[(1S,2R)-2-aminocyclohexyl]-3-{2-[(3,5-dimethoxyphenyl)amino]pyrimidin-4-yl}-1-methyl-1H-pyrazole-5-carboxamide hydrochloride]",0.011,–,–
"Cc1cc(C)cc(Nc2nccc(-c3cc(C(=O)N[C@H]4CCCC[C@H]4N)[nH]n3)n2)c1 [Example 104, N-[(1S,2R)-2-aminocyclohexyl]-3-{2-[(3,5-dimethylphenyl)amino]pyrimidin-4-yl}-1H-pyrazole-5-carboxamide hydrochloride]",< 0.004,–,–
"Cc1cc(C)cc(Nc2nccc(-c3cc(C(=O)N[C@H](CN4CCC4)C(C)C)[nH]n3)n2)c1 [Example 105, N-[(2S)-1-(azetidin-1-yl)-3-methylbutan-2-yl]-3-{2-[(3,5-dimethylphenyl)amino]pyrimidin-4-yl}-1H-pyrazole-5-carboxamide]",0.012,–,–
"Cc1cc(C)cc(Nc2nccc(-c3cc(C(=O)N[C@H](CN4CCCC4)c4ccccc4)n(C)n3)n2)c1 [Example 107, 3-{2-[(3,5-dimethylphenyl)amino]pyrimidin-4-yl}-1-methyl-N-[(1S)-1-phenyl-2-(pyrrolidin-1-yl)ethyl]-1H-pyrazole-5-carboxamide]",0.026,–,–

SMILES,IC50 (SYK [1]; [3]) [µM],IC50 (SYK [2]) [µM],IC50 (SYK [1]; [4]) [µM]
"C[C@@H](CO)NC(=O)c1cc(-c2ccnc(Nc3ccc(N4CCN(C)CC4)c(Cl)c3)n2)nn1C [Example 110, 3-(2-{[3-chloro-4-(4-methylpiperazin-1-yl)phenyl]amino}pyrimidin-4-yl)-N-[(2S)-1-hydroxypropan-2-yl]-1-methyl-1H-pyrazole-5-carboxamide]",0.452,–,–
"CC(C)[C@@H](CO)NC(=O)c1cc(-c2ccnc(Nc3ccc(N4CCN(C)CC4)c(Cl)c3)n2)nn1C [Example 111, 3-(2-{[3-chloro-4-(4-methylpiperazin-1-yl)phenyl]amino}pyrimidin-4-yl)-N-[(2S)-1-hydroxy-3-methylbutan-2-yl]-1-methyl-1H-pyrazole-5-carboxamide]",0.144,–,–
"Cc1cccc(Nc2nccc(-c3cc(C(=O)N[C@H](CN4CCCC4)C(C)C)n(C)n3)n2)c1 [Example 112, 1-methyl-3-{2-[(3-methylphenyl)amino]pyrimidin-4-yl}-N-[(2S)-3-methyl-1-(pyrrolidin-1-yl)butan-2-yl]-1H-pyrazole-5-carboxamide]",0.023,–,–
"Cn1nc(-c2ccnc(Nc3cc(F)cc(F)c3)n2)cc1C(=O)N[C@H]1CCCC[C@@H]1N [Example 113, N-[(1S,2S)-2-aminocyclohexyl]-3-{2-[(3,5-difluorophenyl)amino]pyrimidin-4-yl}-1-methyl-1H-pyrazole-5-carboxamide]",0.061,–,–
"CN1CCN(c2ccc(Nc3nccc(-c4cc(C(=O)N[C@H]5CCCC[C@H]5O)n(C)n4)n3)cc2Cl)CC1 [Example 114, 3-(2-{[3-chloro-4-(4-methylpiperazin-1-yl)phenyl]amino}pyrimidin-4-yl)-N-[(1S,2R)-2-hydroxycyclohexyl]-1-methyl-1H-pyrazole-5-carboxamide]",0.191,–,–
"Cc1cc(C)cc(Nc2nccc(-c3cc(C(=O)N[C@H]4CCCC[C@H]4O)n(C)n3)n2)c1 [Example 115, 3-{2-[(3,5-dimethylphenyl)amino]pyrimidin-4-yl}-N-[(1S,2R)-2-hydroxycyclohexyl]-1-methyl-1H-pyrazole-5-carboxamide]",0.023,–,–
"Cn1nc(-c2ccnc(Nc3cc(Cl)cc(Cl)c3)n2)cc1C(=O)N[C@H]1CCCC[C@@H]1N [Example 116, N-[(1S,2S)-2-aminocyclohexyl]-3-{2-[(3,5-dichlorophenyl)amino]pyrimidin-4-yl}-1-methyl-1H-pyrazole-5-carboxamide]",0.011,–,–
"CC(C)[C@@H](CN1CCCC1)NC(=O)c1cc(-c2ccnc(Nc3cc(Cl)cc(Cl)c3)n2)nn1C [Example 117, 3-{2-[(3,5-dichlorophenyl)amino]pyrimidin-4-yl}-1-methyl-N-[(2S)-3-methyl-1-(pyrrolidin-1-yl)butan-2-yl]-1H-pyrazole-5-carboxamide]",0.007,–,–
"Cc1cc(C)cc(Nc2nccc(-c3cc(C(=O)N[C@H]4CCCC[C@@H]4O)n(C)n3)n2)c1 [Example 118, 3-{2-[(3,5-dimethylphenyl)amino]pyrimidin-4-yl}-N-[(1S,2S)-2-hydroxycyclohexyl]-1-methyl-1H-pyrazole-5-carboxamide]",0.045,–,–
"CCn1nc(-c2ccnc(Nc3cc(C)cc(C)c3)n2)cc1C(=O)N[C@H]1CCCC[C@H]1O [Example 120, 3-{2-[(3,5-dimethylphenyl)amino]pyrimidin-4-yl}-1-ethyl-N-[(1S,2R)-2-hydroxycyclohexyl]-1H-pyrazole-5-carboxamide]",0.027,–,–
"CCn1nc(-c2ccnc(Nc3cc(C)cc(C)c3)n2)cc1C(=O)N[C@H]1CCCC[C@H]1N [Example 121, N-[(1S,2R)-2-aminocyclohexyl]-3-{2-[(3,5-dimethylphenyl)amino]pyrimidin-4-yl}-1-ethyl-1H-pyrazole-5-carboxamide hydrochloride]",0.012,–,–
"CCn1nc(-c2ccnc(Nc3cc(C)cc(C)c3)n2)cc1C(=O)N[C@@H]1CCCNC1 [Example 122, 3-{2-[(3,5-dimethylphenyl)amino]pyrimidin-4-yl}-1-ethyl-N-[(3R)-piperidin-3-yl]-1H-pyrazole-5-carboxamide hydrochloride]",0.06,–,–
"CCc1cccc(CC)c1NC(=O)c1cc(-c2ccnc(Nc3ccccc3OC)n2)n(C)n1 [compound 7, reference compound]",–,–,> 10
"CCc1cccc(CC)c1NC(=O)c1cc(-c2ccnc(Nc3ccccc3OC)n2)[nH]n1 [compound 14, reference compound]",–,–,> 10
"CNC(=O)c1cc(-c2ccnc(N(C)C)n2)n(C(C)(C)C)n1 [compound 39, reference compound]",–,–,> 10
